Patent US20210355106A1, “NEW AMINO-PYRIMIDONYL-PIPERIDINYL DERIVATIVES, A PROCESS FOR THEIR PREPARATION AND PHARMACEUTICAL COMPOSITIONS CONTAINING THEM” (LES LABORATOIRES SERVIER, priority 2018, published 2021)

Assays:
USP7 = target: T1, USP7 (Homo sapiens, UniProt Q93009, C315A); assay: Inhibition of USP7 by Fluorescence Intensity (FLINT) readings, Ubiquitin-Rhodamine-110 substrate; assay type: biochemical; details: 0.25 nM His-His-USP7 (aa208-560), 60 minutes at 30° C. preincubation; Ki determined from IC50 according to Cer et al.
T1 construct: 0.25 nM His-His-USP7 (aa208-560, |C315A|) was incubated with compound; His-His (N)
Outline: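 His-tagged USP7 (aa208-560, C315A), 0.25 nM, preincubated with compound 60 min at 30 °C in 100 mM Bicine pH 8.0, 0.01% Triton X-100, 1 mM TCEP, 10% DMSO. Ubiquitin-Rhodamine-110 (50 nM or 4 μM) added; kinetic fluorescence (Ex 485/Em 535 nm) over 21 min; IC50 from 11-point curves, Ki derived from IC50.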

[1] = test system: Z138 mantle cell lymphoma tumour cell lines; assay: In vitro cytotoxicity, MTT assay; assay type: cell-based; details: Homo sapiens, Z-138; Z138 cells, exposed to the test compounds for 96 hours
Outline: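 Z138 cells exposed to compounds for 96 hours, then MTT added for 4 hours. Formazan absorbance at 540 nm serves as the measure of viable cell number.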

T1 sequence (Q93009 208-560 C315A): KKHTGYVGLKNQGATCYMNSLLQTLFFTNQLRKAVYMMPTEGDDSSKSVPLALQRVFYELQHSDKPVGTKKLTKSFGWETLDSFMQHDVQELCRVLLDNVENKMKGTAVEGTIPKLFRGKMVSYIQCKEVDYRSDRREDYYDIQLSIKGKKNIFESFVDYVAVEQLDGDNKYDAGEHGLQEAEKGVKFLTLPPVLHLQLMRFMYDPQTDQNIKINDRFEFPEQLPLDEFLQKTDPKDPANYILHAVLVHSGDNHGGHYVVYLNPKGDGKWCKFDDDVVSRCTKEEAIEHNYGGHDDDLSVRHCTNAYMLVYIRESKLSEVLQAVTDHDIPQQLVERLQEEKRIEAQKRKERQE

| SMILES | Ki (USP7) [nM] | IC50 [1] [nM] |
| --- | --- | --- |
| Nc1c(Oc2ccc(F)cc2)ncn(CC2(O)CCN(C(=O)[C@@H]3CCN(C(=O)c4cc(F)cc(Br)c4)C[C@H]3c3ccccc3)CC2)c1=O [Example 98] | 3.05 | 7 |
| Nc1c(Oc2cccc(C(F)(F)F)c2)ncn(CC2(O)CCN(C(=O)[C@@H]3CCN(C(=O)c4sc(I)cc4F)C[C@H]3c3ccccc3)CC2)c1=O [Example 99, 5-amino-3-[[1-((3R,4R)-1-(3-fluoro-5-iodo-thiophene-2-carbonyl)-3-phenyl-piperidine-4-carbonyl]-4-hydroxy-4-piperidyl]methyl]-6-[3-(trifluoromethyl)phenoxy]pyrimidin-4-one] | 56 | 120 |
| Cc1nc(Br)sc1C(=O)N1CC[C@@H](C(=O)N2CCC(O)(Cn3cnc(Oc4cccc(C(F)(F)F)c4)c(N)c3=O)CC2)[C@H](c2ccccc2)C1 [Example 100, 5-amino-3-[[1-[(3R,4R)-1-(2-bromo-4-methyl-thiazole-5-carbonyl)-3-phenyl-piperidine-4-carbonyl]-4-hydroxy-4-piperidyl]methyl]-6-[3-(trifluoromethyl)phenoxy]pyrimidin-4-one] | 24 | 47.6 |
| Nc1c(Oc2ccc(F)cc2)ncn(CC2(O)CCN(C(=O)[C@@H]3CCN(C(=O)c4cccc5cnccc45)C[C@H]3c3ccccc3)CC2)c1=O [Example 102, 5-amino-6-(4-fluorophenoxy)-3-({4-hydroxy-1-[(3R,4R)-1-(isoquinoline-5-carbonyl)-3-phenylpiperidine-4-carbonyl]piperidin-4-yl}methyl)pyrimidin-4(3H)-one] | 4.1 | 9.31 |
| Nc1c(Oc2ccc(F)cc2)ncn(CC2(O)CCN(C(=O)[C@@H]3CCN(C(=O)c4sc(Cl)c(Br)c4F)C[C@H]3c3ccccc3)CC2)c1=O [Example 106, 5-amino-3-[[I-[(3R,4R)-1-(4-bromo-5-chloro-3-fluoro-thiophene-2-carbonyl)-3-phenyl-piperidine-4-carbonyl]-4-hydroxy-4-piperidyl]methyl]-6-(4-fluorophenoxy)pyrimidin-4-one] | 15 | 18.6 |
| Nc1c(Oc2ccc(F)cc2)ncn(CC2(O)CCN(C(=O)[C@@H]3CCN(C4(c5ccccc5)COC4)C[C@H]3c3ccccc3)CC2)c1=O [Example 108, 5-amino-6-(4-fluorophenoxy)-3-[[4-hydroxy-1-((3R,4R)-3-phenyl-1-(3-phenyloxetan-3-yl)piperidine-4-carbonyl]-4-piperidyl]methyl]pyrimidin-4-one] | 63 | 50 |
| Nc1c(Oc2ccc(F)cc2)ncn(CC2(O)CCN(C(=O)[C@@H]3CCN(C4(c5ccccc5F)COC4)C[C@H]3c3ccccc3)CC2)c1=O [Example 109] | 65 | 11 |
| Nc1c(Oc2ccccc2)ncn(CC2(O)CCN(C(=O)[C@@H]3CCN(C4(c5ccccc5F)COC4)C[C@H]3c3ccccc3)CC2)c1=O [Example 114] | 66 | 22 |
| Cc1ccc(-c2ccc(S(=O)(=O)N3CC[C@@H](C(=O)N4CCC(O)(Cn5cnc(Oc6ccc(F)cc6)c(N)c5=O)CC4)[C@H](c4ccccc4)C3)s2)cn1 [Example 117] | 28.6 | 27.6 |
| Cc1ccc(-c2cc(F)cc(C(=O)N3CC[C@@H](C(=O)N4CCC(O)(Cn5cnc(Oc6ccc(F)cc6)c(N)c5=O)CC4)[C@H](c4ccccc4)C3)c2)cn1 [Example 121] | 4.68 | 6.4 |
| Cn1cnc2ccc(C(=O)N3CC[C@@H](C(=O)N4CCC(O)(Cn5cnc(Oc6ccc(F)cc6)c(N)c5=O)CC4)[C@H](c4ccccc4)C3)cc2c1=O [Example 123, 6-[(3R,4R)-4-(4-({5-amino-4-(4-fluorophenoxy)-6-oxopyrimidin-1(6H)-yl]methyl)-4-hydroxypiperidine-1-carbonyl)-3-phenylpiperidine-1-carbonyl]-3-methylquinazolin-4(3H)-one] | 6.92 | 43.2 |
| Cn1c(C(=O)N2CC[C@@H](C(=O)N3CCC(O)(Cn4cnc(Oc5ccc(F)cc5)c(N)c4=O)CC3)[C@H](c3ccccc3)C2)c(Cl)c2ccccc21 [Example 127, 5-amino-3-[[1-[(3R,4R)-1-(3-chloro-1-methyl-indole-2-carbonyl)-3-phenyl-piperidine-4-carbonyl]-4-hydroxy-4-piperidyl]methyl]-6-(4-fluorophenoxy)pyrimidin-4-one] | 5.93 | 20.4 |
| Nc1c(Oc2ccc(F)cc2)ncn(CC2(O)CCN(C(=O)[C@@H]3CCN(C(=O)Nc4ccccc4C(F)(F)F)C[C@H]3c3ccccc3)CC2)c1=O [Example 128, (3R,4R)-4-[4-[[5-amino-4-(4-fluorophenoxy)-6-oxo-pyrimidin-1-yl]methyl]-4-hydroxy-piperidine-1-carbonyl]-3-phenyl-N-[2-(trifluoromethyl)phenyl]piperidine-1-carboxamide] | 38.6 | 75 |

Second part, led by results:

| Ki (USP7) [nM] | SMILES | IC50 [1] [nM] |
| --- | --- | --- |
| 11 | Cc1ccc(-c2cc(F)c(C(=O)N3CC[C@@H](C(=O)N4CCC(O)(Cn5cnc(Oc6cccc(C(F)(F)F)c6)c(N)c5=O)CC4)[C@H](c4ccccc4)C3)s2)cn1 [Example 101, 5-amino-3-[[1-[(3R,4R)-1-[3-fluoro-5-(46-methyl-3-pyridyl)thiophene-2-carbonyl]-3-phenyl-piperidine-4-carbonyl]-4-hydroxy-4-piperidyl]methyl]-6-[3-(trifluoromethyl)phenoxy]pyrimidin-4-one] | 25.3 |
| 6.4 | Cc1nc(-c2ccc(C(F)(F)F)nc2)sc1C(=O)N1CC[C@@H](C(=O)N2CC[C@](O)(Cn3cnc(Oc4ccc(F)cc4)c(N)c3=O)C(F)(F)C2)[C@H](c2ccccc2)C1 [Example 103] | 6.63 |
| 15 | Nc1c(Oc2ccc(F)cc2)ncn(C[C@@]2(O)CCN(C(=O)[C@@H]3CCN(C(=O)c4sc(I)cc4F)C[C@H]3c3ccccc3)CC2(F)F)c1=O [Example 104, 5-amino-3-[[(4S)-3,3-difluoro-1-[(3R,4R)-1-(3-fluoro-5-iodo-thiophene-2-carbonyl)-3-phenyl-piperidine-4-carbonyl]-4-hydroxy-4-piperidyl]methyl]-6-(4-fluorophenoxy)pyrimidin-4-one] | 37.2 |
| 2.6 | Cc1ccc(-c2cc(F)c(C(=O)N3CC[C@@H](C(=O)N4CC[C@](O)(Cn5cnc(Oc6ccc(F)cc6)c(N)c5=O)C(F)(F)C4)[C@H](c4ccccc4)C3)s2)cn1 [Example 105, 5-amino-3-([(4S)-3,3-difluoro-1-((3R,4R)-1-[3-fluoro-5-(6-methylpyridin-3-yl)thiophene-2-carbonyl]-3-phenylpiperidine-4-carbonyl}-4-hydroxypiperidin-4-yl}methyl}-6-(4-fluorophenoxy)pyrimidin-4(3H)-one] | 5.08 |
| 3.3 | Cc1ccc(-c2c(Cl)sc(C(=O)N3CC[C@@H](C(=O)N4CCC(O)(Cn5cnc(Oc6ccc(F)cc6)c(N)c5=O)CC4)[C@H](c4ccccc4)C3)c2F)cn1 [Example 107] | 7.64 |
| 1.53 | Cc1ccc(-c2nc(C)c(C(=O)N3CC[C@@H](C(=O)N4CC[C@](O)(Cn5cnc(Oc6ccccc6)c(N)c5=O)C(F)(F)C4)[C@H](c4ccccc4)C3)s2)cn1 [Example 119] | 4.3 |
| 45.4 | Cc1cc(C(=O)N2CC[C@@H](C(=O)N3CC[C@](O)(Cn4cnc(Oc5ccc(F)cc5)c(N)c4=O)C(F)(F)C3)[C@H](c3ccccc3)C2)nn1-c1ccccc1 [Example 120, 5-amino-3-({(4S)-3,3-difluoro-4-hydroxy-1-[(3R,4R)-1-(5-methyl-1-phenyl-1H-pyrazole-3-carbonyl)-3phenylpiperidine-4-carbonyl]piperidin-4-yl)methyl)-6(4-fluorophenoxy)pyrimidin-4(3H)-one] | 41.3 |
| 13.6 | Nc1c(Oc2ccc(F)cc2)ncn(CC2(O)CCN(C(=O)[C@@H]3CCN(C(=O)c4cncc(C(F)(F)F)c4)C[C@H]3c3ccccc3)CC2)c1=O [Example 122, 5-amino-6-(4-fluorophenoxy)-3-[(4-hydroxy-1-{(3R,4R)-3-phenyl-1-[5-(trifluoromethyl)pyridine-3-carbonyl]piperidine-4-carbonyl}piperidin-4-yl)methyl]pyrimidin-4(3H)-one] | 23 |
| 12 | Nc1c(Oc2cccc(C(F)(F)F)c2)ncn(CC2(O)CCN(C(=O)[C@@H]3CCN(C(=O)c4sc(-c5ccc(C(F)(F)F)nc5)cc4F)C[C@H]3c3ccccc3)CC2)c1=O [Example 124, 5-amino-3-[[1-[(3R,4R)-1-[3-fluoro-5-[16-(trifluoromethyl)-3-pyridyl]thiophene-2-carbonyl]-3-phenyl-piperidine-4-carbonyl]-4-hydroxy-4-piperidyl]methyl]-6-[3-(trifluoromethyl)phenoxy]pyrimidin-4-one] | 31.5 |
| 7.98 | Cc1nc(-c2ccc(C(F)(F)F)nc2)sc1C(=O)N1CC[C@@H](C(=O)N2CCC(O)(Cn3cnc(Oc4cccc(C(F)(F)F)c4)c(N)c3=O)CC2)[C@H](c2ccccc2)C1 [Example 125, 5-amino-3-[[4-hydroxy-1-[(3R,4R)-1-[4-methyl-2-[6-(trifluoromethyl)-3-pyridyl]thiazole-5-carbonyl]-3-phenyl-piperidine-4-carbonyl]-4-piperidyl]methyl]-6-[3-(trifluoromethyl)phenoxy]pyrimidin-4-one] | 26.6 |
| 4.44 | Cc1nc(-c2ccc(N(C)C)nc2)sc1C(=O)N1CC[C@@H](C(=O)N2CCC(O)(Cn3cnc(Oc4cccc(C(F)(F)F)c4)c(N)c3=O)CC2)[C@H](c2ccccc2)C1 [Example 126] | 29.5 |
